The record followed here is US20260274832A1, “COMPOUNDS AND THEIR USE IN TREATING CANCER” (ASTRAZENECA AB, priority 2023, published 2026).

In assay [1] the target is T1, AR (L702H) in LNCaP cells (Homo sapiens, UniProt P10275, L702H/T878A).
T1 construct: engineered to introduce the mutation L702H into the AR gene using CRISPR/Cas9; endogenous in cells; host or cells: LNCaP cells edited by CRISPR/Cas9 at the AR gene
Put plainly: LNCaP Androgen Receptor L702H Imaging Assay (LNCaP cells engineered by CRISPR/Cas9). It counts as cell-based. The settings on record: LNCaP cells with AR L702H mutation, 24 h incubation; for DC50: concentration giving 50% of maximum degradation of AR (L702H) per curve fit; for Dmax: LNCaP, maximum degradation observed, normalized as % of positive control. Put shortly: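 CRISPR-engineered LNCaP cells carrying AR L702H were treated 24 h at 37 °C with a 12-point compound dose response (0.3% DMSO), then fixed and immunostained for AR with DRAQ5 nuclear counterstain. Nuclear AR was quantified by imaging, normalized to positive control; DC50 and Dmax came from Hill or bell-shaped fits.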

In assay [2] the target is T2, AR (AR-full length) in LNCaP cells (Homo sapiens, UniProt P10275, T878A).
T2 construct: the prostate cancer cell line LNCaP (expressing AR-full length); endogenous in cells; host or cells: LNCaP
T2 sequence (P10275 whole entry T878A): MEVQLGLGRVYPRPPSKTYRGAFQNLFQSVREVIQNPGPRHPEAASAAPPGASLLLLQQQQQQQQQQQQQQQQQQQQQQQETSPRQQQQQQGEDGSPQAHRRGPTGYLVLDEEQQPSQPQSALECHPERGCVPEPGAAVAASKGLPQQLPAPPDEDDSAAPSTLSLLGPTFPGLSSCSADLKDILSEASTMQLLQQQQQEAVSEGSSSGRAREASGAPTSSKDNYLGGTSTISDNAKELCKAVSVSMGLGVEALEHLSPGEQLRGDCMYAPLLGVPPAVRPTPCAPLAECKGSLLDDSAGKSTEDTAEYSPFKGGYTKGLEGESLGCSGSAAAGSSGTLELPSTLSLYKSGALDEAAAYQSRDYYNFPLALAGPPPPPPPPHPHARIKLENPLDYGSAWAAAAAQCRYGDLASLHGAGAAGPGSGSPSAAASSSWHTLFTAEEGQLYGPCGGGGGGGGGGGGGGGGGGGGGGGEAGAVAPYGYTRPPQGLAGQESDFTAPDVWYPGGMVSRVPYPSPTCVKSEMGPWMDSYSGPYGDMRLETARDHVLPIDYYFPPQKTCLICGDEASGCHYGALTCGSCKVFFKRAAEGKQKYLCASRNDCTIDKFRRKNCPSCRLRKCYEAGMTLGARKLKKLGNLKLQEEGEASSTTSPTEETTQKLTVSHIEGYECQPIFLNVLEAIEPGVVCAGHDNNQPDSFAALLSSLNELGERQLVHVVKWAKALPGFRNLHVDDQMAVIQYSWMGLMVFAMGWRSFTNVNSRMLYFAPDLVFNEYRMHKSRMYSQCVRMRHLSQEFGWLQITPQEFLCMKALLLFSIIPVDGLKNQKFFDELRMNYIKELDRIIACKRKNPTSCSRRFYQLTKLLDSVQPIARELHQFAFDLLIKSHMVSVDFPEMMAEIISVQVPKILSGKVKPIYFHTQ
T2 sequence (Q96SW2 whole entry partner): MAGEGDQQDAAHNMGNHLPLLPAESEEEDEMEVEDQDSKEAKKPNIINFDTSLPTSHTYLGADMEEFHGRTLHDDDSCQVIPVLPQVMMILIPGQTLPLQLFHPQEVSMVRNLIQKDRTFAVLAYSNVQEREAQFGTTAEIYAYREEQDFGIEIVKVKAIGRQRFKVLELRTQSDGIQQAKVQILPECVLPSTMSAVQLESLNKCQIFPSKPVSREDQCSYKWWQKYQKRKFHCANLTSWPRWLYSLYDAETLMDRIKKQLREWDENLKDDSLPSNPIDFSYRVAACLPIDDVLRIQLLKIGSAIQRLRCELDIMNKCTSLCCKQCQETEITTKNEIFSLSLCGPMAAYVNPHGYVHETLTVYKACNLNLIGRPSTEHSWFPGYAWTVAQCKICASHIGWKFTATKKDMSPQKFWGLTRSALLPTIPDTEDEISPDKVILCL
In words: LNCaP Androgen Receptor Imaging Assay (immunofluorescence of endogenous nuclear AR). The settings on record: 24 h incubation; for DC50: concentration giving 50% of maximum degradation of AR per curve fit, single experiment or average of two or more; for Dmax: LNCaP, maximum degradation observed, normalized as % of positive control (prior art AR PROTAC at 3 μM). It counts as cell-based. In outline:
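LNCaP cells (12,000/well) received a 12-point compound dose series (0.3% DMSO) for 24 h at 37° C., then were PFA-fixed and stained for AR (AR441) and nuclei (DRAQ5). Nuclear AR was quantified by imaging, normalized to a 3 μM AR PROTAC control; DC50 and Dmax came from Hill/bell curve fits.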

T1 sequence (P10275 whole entry L702H/T878A): as the sequence (P10275 whole entry T878A) above, with L702H counted along it
T1 sequence (Q96SW2 whole entry partner): as the sequence (Q96SW2 whole entry partner) above

For `COc1cc(N2CCN(CCCCOc3ccc(C4CCN(c5ccc(C)c6c(C#N)n[nH]c56)CC4)cc3)CC2)cc2c1C(=O)N(C1CCC(=O)NC1=O)C2` (stereo not drawn) [Example 148, 7-{4-[4-(4-{4-[2-(2,6-Dioxopiperidin-3-yl)-7-methoxy-1-oxo-2,3-dihydro-1H-isoindol-5-yl]piperazin-1-yl}butoxy)phenyl]piperidin-1-yl}-4-methyl-1H-indazole-3-carbonitrile], in assay [1], the DC50 is 52 nM and the Dmax was 89%. In addition, in assay [2], the 50% degradation concentration (DC50) came to 20 nM and the Dmax was 99%.
For `COc1cc(N2CCN(CC3CCN(c4ccc(C5CCN(c6ccc(C)c7c(C#N)n[nH]c67)CC5)cc4)CC3)CC2)cc2c1C(=O)N(C1CCC(=O)NC1=O)C2` (stereo not drawn) [Example 149, 7-(4-{4-[4-({4-[2-(2,6-Dioxopiperidin-3-yl)-7-methoxy-1-oxo-2,3-dihydro-1H-isoindol-5-yl]piperazin-1-yl}methyl)piperidin-1-yl]phenyl}piperidin-1-yl)-4-methyl-1H-indazole-3-carbonitrile] the same measures were 60 nM, 91%, 20 nM and 96%.
For `N#Cc1n[nH]c2c(N3CCC(NC(=O)c4ccc(N5CCC(CN6CCC(n7ccc8c(N9CCC(=O)NC9=O)cccc87)CC6)CC5)cc4F)CC3)ccc(Cl)c12` [Example 152, N-[1-(4-Chloro-3-cyano-1H-indazol-7-yl)piperidin-4-yl]-4-[4-({4-[4-(2,4-dioxo-1,3-diazinan-1-yl)-1H-indol-1-yl]piperidin-1-yl}methyl)piperidin-1-yl]-2-fluorobenzamide] the same measures were 2 nM, 108%, 2 nM and 105%.
The like results for `N#Cc1c[nH]c2c(N3CCC(NC(=O)c4ccc(N5CCC(CN6CCC(n7ccc8cc(N9CCC(=O)NC9=O)ccc87)CC6)CC5)cc4F)CC3)ccc(Cl)c12` [Example 153, N-[1-(4-Chloro-3-cyano-1H-indol-7-yl)piperidin-4-yl]-4-[4-({4-[5-(2,4-dioxo-1,3-diazinan-1-yl)-1H-indol-1-yl]piperidin-1-yl}methyl)piperidin-1-yl]-2-fluorobenzamide] were, in that order, 3 nM, 114%, 2 nM and 109%.
With `N#Cc1c[nH]c2c(N3CCC(NC(=O)c4ccc(N5CCC(CN6CCN(c7ccc(C(=O)NC8CCC(=O)NC8=O)c(F)c7)CC6)CC5)cc4F)CC3)ccc(Cl)c12` (stereo not drawn) [Example 154], in assay [1], the DC50 came out at 9 nM and the Dmax was 79%. In addition, in assay [2], it took 4 nM to reach half-maximal degradation (DC50) and the Dmax came to 81%.
The like results for `N#Cc1c[nH]c2c(N3CCC(NC(=O)c4ccc(N5CCC(CN6Cc7cc8c(cc7C6)C(=O)N(C6CCC(=O)NC6=O)C8=O)CC5)cc4F)CC3)ccc(Cl)c12` (stereo not drawn) [Example 155, N-[1-(4-Chloro-3-cyano-1H-indol-7-yl)piperidin-4-yl]-4-(4-{[6-(2,6-dioxopiperidin-3-yl)-5,7-dioxo-3,5,6,7-tetrahydropyrrolo[3,4-f]isoindol-2(1H)-yl]methyl}piperidin-1-yl)-2-fluorobenzamide] were, in that order, 17 nM, 82%, 4 nM and 80%.
As for `Cn1c(C2CCN(CC3CCN(c4ccc(C(=O)NC5CCN(c6ccc(Cl)c7c(C#N)c[nH]c67)CC5)c(F)c4)CC3)CC2)cc2cc(F)c(N3CCC(=O)NC3=O)cc21` [Example 156, N-[1-(4-Chloro-3-cyano-1H-indol-7-yl)piperidin-4-yl]-4-[4-({4-[6-(2,4-dioxo-1,3-diazinan-1-yl)-5-fluoro-1-methyl-1H-indol-2-yl]piperidin-1-yl}methyl)piperidin-1-yl]-2-fluorobenzamide], in assay [1], it took 10 nM to reach half-maximal degradation (DC50) and the Dmax was found to be 105%. In assay [2], the DC50 stood at 5 nM and the Dmax turned out to be 104%.
For `Cn1c(=O)n(C2CCC(=O)NC2=O)c2cccc(N3CCN(CC4CCN(c5ccc(C(=O)NC6CCN(c7ccc(Cl)c8c(C#N)c[nH]c78)CC6)c(F)c5)CC4)CC3)c21` (stereo not drawn) [Example 157, N-[1-(4-Chloro-3-cyano-1H-indol-7-yl)piperidin-4-yl]-4-[4-({4-[1-(2,6-dioxopiperidin-3-yl)-3-methyl-2-oxo-2,3-dihydro-1H-benzimidazol-4-yl]piperazin-1-yl}methyl)piperidin-1-yl]-2-fluorobenzamide] the same measures were 4 nM, 96%, 3 nM and 97%.
Turning to `Cn1c(C2CCN(CC3CCN(c4ccc(C(=O)NC5CCN(c6ccc(Cl)c7c(C#N)c[nH]c67)CC5)c(F)c4)CC3)CC2)cc2ccc(N3CCC(=O)NC3=O)cc21` [Example 158, N-[1-(4-Chloro-3-cyano-1H-indol-7-yl)piperidin-4-yl]-4-[4-({4-[6-(2,4-dioxo-1,3-diazinan-1-yl)-1-methyl-1H-indol-2-yl]piperidin-1-yl}methyl)piperidin-1-yl]-2-fluorobenzamide], the DC50 worked out at 7 nM in assay [1] and 1 nM in assay [2]. Besides, the results for the Dmax in assay [1] and in assay [2] were 107% and 104%, respectively.
The like results for `N#Cc1c[nH]c2c(N3CCC(NC(=O)c4ccc(N5CCC(CN6CCN(c7ccc8c(c7)CN(C7CCC(=O)NC7=O)C8=O)CC6)CC5)cc4F)CC3)ccc(Cl)c12` (stereo not drawn) [Example 159, N-[1-(4-Chloro-3-cyano-1H-indol-7-yl)piperidin-4-yl]-4-[4-({4-[2-(2,6-dioxopiperidin-3-yl)-1-oxo-2,3-dihydro-1H-isoindol-5-yl]piperazin-1-yl}methyl)piperidin-1-yl]-2-fluorobenzamide] were, in that order, 3 nM, 2 nM, 106% and 101%.
Regarding `N#Cc1c[nH]c2c(N3CCC(NC(=O)c4ccc(N5CCC(CN6CCC(n7ccc8c(N9CCC(=O)NC9=O)cccc87)CC6)CC5)cc4F)CC3)ccc(Cl)c12` [Example 160, N-[1-(4-Chloro-3-cyano-1H-indol-7-yl)piperidin-4-yl]-4-[4-({4-[4-(2,4-dioxo-1,3-diazinan-1-yl)-1H-indol-1-yl]piperidin-1-yl}methyl)piperidin-1-yl]-2-fluorobenzamide], in assay [1], the half-maximal degradation concentration (DC50) worked out at 4 nM and the Dmax is 105%. Besides, in assay [2], half-maximal degradation (DC50) was put at 1 nM and the Dmax stood at 104%.
The like results for `N#Cc1c[nH]c2c(N3CCC(NC(=O)c4ccc(N5CCC(CN6CCN(c7cc8c(cc7F)C(=O)N(C7CCC(=O)NC7=O)C8=O)CC6)CC5)cc4F)CC3)ccc(Cl)c12` (stereo not drawn) [Example 161, N-[1-(4-Chloro-3-cyano-1H-indol-7-yl)piperidin-4-yl]-4-[4-({4-[2-(2,6-dioxopiperidin-3-yl)-6-fluoro-1,3-dioxo-2,3-dihydro-1H-isoindol-5-yl]piperazin-1-yl}methyl)piperidin-1-yl]-2-fluorobenzamide] were, in that order, 20 nM, 98%, 7 nM and 95%.
For `N#Cc1cc(N2CCC(CN3CCC(n4ccc5c(N6CCC(=O)NC6=O)cccc54)CC3)CC2)ccc1C(=O)NC1CCN(c2ccc(Cl)c3c(C#N)c[nH]c23)CC1` [Example 162, N-[1-(4-Chloro-3-cyano-1H-indol-7-yl)piperidin-4-yl]-2-cyano-4-[4-({4-[4-(2,4-dioxo-1,3-diazinan-1-yl)-1H-indol-1-yl]piperidin-1-yl}methyl)piperidin-1-yl]benzamide] the same measures were 1 nM, 110%, 1 nM and 106%.
The like results for `Cc1cc(N2CCC(CN3CCC(n4ccc5c(N6CCC(=O)NC6=O)cccc54)CC3)CC2)cc(F)c1C(=O)NC1CCN(c2ccc(Cl)c3c(C#N)c[nH]c23)CC1` [Example 163, N-[1-(4-Chloro-3-cyano-1H-indol-7-yl)piperidin-4-yl]-4-[4-({4-[4-(2,4-dioxo-1,3-diazinan-1-yl)-1H-indol-1-yl]piperidin-1-yl}methyl)piperidin-1-yl]-2-fluoro-6-methylbenzamide] were, in that order, 2 nM, 113%, 1 nM and 107%.
For the molecule `Cc1cc(C(=O)NC2CCN(c3ccc(Cl)c4c(C#N)c[nH]c34)CC2)ccc1N1CCC(CN2CCC(n3ccc4c(N5CCC(=O)NC5=O)cccc43)CC2)CC1` [Example 164, N-[1-(4-Chloro-3-cyano-1H-indol-7-yl)piperidin-4-yl]-4-[4-({4-[4-(2,4-dioxo-1,3-diazinan-1-yl)-1H-indol-1-yl]piperidin-1-yl}methyl)piperidin-1-yl]-3-methylbenzamide], in assay [1], half-maximal degradation (DC50) was put at 2 nM and the Dmax is 114%. For the same molecule, in assay [2], half-maximal degradation (DC50) was put at 2 nM and the Dmax stood at 108%.

What is called DC50 is the concentration giving 50% degradation. As usually defined, the Dmax is the greatest extent of degradation seen.
